From patent publication US20240124469A1, “PIM KINASE INHIBITOR” (Hangzhou Biosun Pharmaceutical Co., Ltd., priority 2021, published 2024)

Tests used:
Assay type in all cases: biochemical
PIM3 = PIM3 (Homo sapiens (Human), UniProt Q86V86); assay: PIM3 kinase activity test (Mobility shift assay)
Procedure: (§1) The efficacy of the compounds on the activity of PIM1/2/3 was tested by utilizing the Mobility shift assay method, with the specific procedures shown as follows: the test compounds were each dissolved in DMSO to be prepared into a 10 mM stock solution; for each of the test compounds, the stock solution was subjected to a 3-fold dilution from an initial concentration of 10 μM to obtain 10 concentrations.
(§2) PIM1, PIM2, and PIM3 (all three kinases are from Carna) were each prepared with 1× Kinase buffer into a kinase solution at a concentration that was 2.5 times the final concentration. 10 μL of kinase solution at a concentration that was 2.5 times the final concentration was added to each of the compound wells and the positive control well, and 10 μL of 1× Kinase buffer was added to the negative control well. The plate was centrifuged at 1000 rpm for 30 s, mixed well by shaking, and then incubated at room temperature for 10 min. A mixed solution of ATP and Kinase substrate 20 (from GL) at a concentration that was 25/15 times the final concentration was prepared with 1× Kinase buffer. The reaction was started by adding 15 μL of the mixed solution of ATP and Kinase substrate 20 at a concentration that was 25/15 times the final concentration. The 384-well plate was centrifuged at 1000 rpm for 30 s, mixed well by shaking, and then incubated at room temperature for 60 min. 30 μL of stop assay buffer was added to stop the kinase reaction. The plate was centrifuged at 1000 rpm for 30 s and mixed well by shaking. The conversion rates were read using Caliper EZ Reader.
(§3) The IC50 values of the test compounds for kinase activity were obtained by adopting a fitted dose-response curve of analytic software GraphPad Prism 5.

PIM1 = PIM1 (Homo sapiens (Human), UniProt P11309); assay: PIM1 kinase activity test (Mobility shift assay)
Chain of PIM1 (P11309 whole entry): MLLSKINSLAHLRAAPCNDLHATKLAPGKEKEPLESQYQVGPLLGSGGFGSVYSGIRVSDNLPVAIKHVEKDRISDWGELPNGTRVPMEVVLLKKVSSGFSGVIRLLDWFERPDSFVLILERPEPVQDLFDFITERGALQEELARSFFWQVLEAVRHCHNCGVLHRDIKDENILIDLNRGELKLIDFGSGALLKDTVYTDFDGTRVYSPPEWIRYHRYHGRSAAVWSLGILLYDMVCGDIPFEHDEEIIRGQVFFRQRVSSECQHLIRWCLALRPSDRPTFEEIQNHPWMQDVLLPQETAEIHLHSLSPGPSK
Procedure: as §1, §2, §3

PIM2 = PIM2 (Homo sapiens (Human), UniProt Q9P1W9); assay: PIM2 kinase activity test (Mobility shift assay)
Chain of PIM2 (Q9P1W9 whole entry): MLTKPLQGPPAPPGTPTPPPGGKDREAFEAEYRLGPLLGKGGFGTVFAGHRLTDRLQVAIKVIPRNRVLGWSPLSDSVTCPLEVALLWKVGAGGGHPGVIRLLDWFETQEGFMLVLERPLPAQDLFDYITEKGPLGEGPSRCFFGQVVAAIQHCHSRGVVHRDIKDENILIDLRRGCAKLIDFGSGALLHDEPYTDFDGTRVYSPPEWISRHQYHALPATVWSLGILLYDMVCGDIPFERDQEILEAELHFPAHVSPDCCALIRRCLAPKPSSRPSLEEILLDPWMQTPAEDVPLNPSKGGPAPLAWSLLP
Procedure: as §1, §2, §3

Row | Compound | IC50 (PIM3) [nM] | IC50 (PIM1) [nM] | IC50 (PIM2) [nM]
1 | CC(C)(O)[C@H]1CC[C@H](Nc2ccc3ncc(-c4cccc(S(C)(=O)=O)c4)n3n2)CC1 [Compound 51, 2-[(1r,4r)-4-[[3-(3-methylsulfonylphenyl)imidazo[1,2-b]pyridazin-6-yl]amino]cyclohexyl]propan-2-ol] | > 10000 | 100 to 1000 | 1000 to 10000
2 | OC[C@H]1CC[C@H](Nc2ccc3ncc(-c4ccc(C(F)(F)F)s4)n3n2)CO1 [Compound 47, [(2R,5S)-5-[[3-[5-(trifluoromethyl)-2-thienyl]imidazo[1,2-b]pyridazin-6-yl]amino]tetrahydropyran-2-yl]methanol] | 1000 to 10000 | 10 to 100 | > 10000
3 | O[C@@H]1CCCC[C@@H](Nc2ccc3ncc(-c4cccc(C(F)(F)F)c4)n3n2)C1 [Compound 44, (1R,3R)-3-((3-(3-(trifluoromethyl)phenyl)imidazo[1,2-b]pyridazin-6-yl)amino)cycloheptanol] | > 10000 | 100 to 1000 | > 10000
4 | OC[C@@H]1CC[C@@H](Nc2ccc3ncc(-c4cccc(C(F)(F)F)c4)n3n2)CO1 [Compound 22, [(2S,5R)-5-[[3-[3-(trifluoromethyl)phenyl]imidazo[1,2-b]pyridazin-6-yl]amino]tetrahydropyran-2-yl]methanol] | 1000 to 10000 | 10 to 100 | 1000 to 10000
5 | FC(F)(F)c1cccc(-c2cnc3ccc(NCC4CC5(CCNC5)C4)nn23)c1 (stereo not drawn) [Compound 18, N-(6-azaspiro[3.4]octan-2-ylmethyl)-3-(3-(trifluoromethyl)phenyl)imidazo[1,2-b]pyridazin-6-amine] | 100 to 1000 | 10 to 100 | 100 to 1000
6 | CC(C)(O)[C@H]1CC[C@H](Nc2ccc3nc(C#N)c(-c4cccc(C(F)(F)F)c4)n3n2)CC1 [Compound 43, 6-(((1r,4r)-4-(2-hydroxypropan-2-yl)cyclohexyl)amino)-3-(3-(trifluoromethyl)phenyl)imidazo[1,2-b] pyridazine-2-carbonitrile] | > 10000 | 100 to 1000 | > 10000
7 | CC(C)(O)[C@H]1CC[C@H](Nc2ccc3ncc(-c4nccs4)n3n2)CC1 [Compound 17, 2-[(1r,4r)-4-[(3-thiazol-2-ylimidazo[1,2-b]pyridazin-6-yl)amino]cyclohexyl]propan-2-ol] | 100 to 1000 | 100 to 1000 | 100 to 1000
8 | CN1CCC2(CC1)CC(Nc1ccc3ncc(-c4cccc(C(F)(F)F)c4)n3n1)C2 [Compound 26, N-(7-methyl-7-azaspiro[3.5]nonan-2-yl)-3-(3-(trifluoromethyl)phenyl)imidazo[1,2-b]pyridazin-6-amine] | 100 to 1000 | 10 to 100 | 1000 to 10000
9 | CN1CCCC(Nc2ccc3ncc(-c4cccc(C(F)(F)F)c4)n3n2)CC1 (stereo not drawn) [Compound 27, N-(1-methylazacycloheptan-4-yl)-3-[3-(trifluoromethyl)phenyl]imidazo[1,2-b]pyridazin-6-amine] | 100 to 1000 | 10 to 100 | 100 to 1000

The next lines start with the values.

Row | IC50 (PIM3) [nM] | IC50 (PIM1) [nM] | IC50 (PIM2) [nM] | Compound
10 | 100 to 1000 | 10 to 100 | 1000 to 10000 | FC(F)(F)c1cccc(-c2cnc3ccc(NCC4CC5(CCNCC5)C4)nn23)c1 [Compound 15, N-(7-azaspiro [3.5]nonan-2-ylmethyl)-3-[3-(trifluoromethyl)phenyl]imidazo[1,2-b]pyridazin-6-amine]
11 | 1000 to 10000 | 10 to 100 | > 10000 | FC(F)(F)c1cccc(-c2cnc3ccc(NC4CC5(CCN(C6CC6)CC5)C4)nn23)c1 [Compound 30, N-(7-cyclopropyl-7-azaspiro [3.5]nonan-2-yl)-3-(3-(trifluoromethyl)phenyl)imidazo[1,2-b]pyridazin-6-amine]
12 | 100 to 1000 | 100 to 1000 | 1000 to 10000 | FC(F)(F)c1cccc(-c2cnc3ccc(NC4CC5(CCNC5)C4)nn23)c1 (stereo not drawn) [Compound 24, N-(6-azaspiro [3.4]octan-2-yl)-3-(3-(trifluoromethyl)phenyl)imidazo[1,2-b]pyridazin-6-amine]
